Assay results taken from patent publication US20200009173A1, “TRIAZOLE-CONTAINING MACROLIDES AND OPHTHALMIC USES THEREFOR” (Tetard, Inc., priority 2017, published 2020).
≈ marks a conversion by molar mass, not a printed value. Like-named read-outs stand apart in the source and are kept apart here.

Key:
P. Acnes = assay: MICs of solithromycin and comparator drugs against P. acnes; assay type: cell-based; settings: for MIC50 / MIC90: Cutibacterium acnes
Description: EXAMPLE. The formulations described herein show overall higher potency against ocular pathogens than commercial standards. MICs (μg/ml) of Solithromycin and Comparator Drugs against P. Acnes (51 Species)

TNFα = TNFα production in LPS-stimulated PMA-differentiated U937 cells (ELISA); assay type: cell-based, human
Method: (§1) EXAMPLE. […] Cells. The human monocytic cell line U937 was obtained from the American Type Culture Collection (ATCC, Rockville, Md.). PBMCs from COPD patients were obtained from Brompton hospital and separated by AccuSPIN (Sigma-Aldrich). […] U937 cells were differentiated into adherent macrophage-like morphology by exposure to PMA (50 ng/ml) for 48 h in complete growth medium. Cell viability was assessed microscopically by trypan blue staining. Cell toxicity was determined by MTT assay as needed. This study was approved by the ethics committee of the Royal Brompton Hospitals, and all subjects gave written informed consent. Cytokine ELISA. TNFα and IL-8 concentrations in the supernatant of cell cultures were determined by sandwich ELISA according to the manufacturer's instructions (R&D Systems Europe, Abingdon, UK). Statistical analysis. The results were expressed as the mean±SEM. Comparisons of data in two groups were performed using the Student's t test or the Wilcoxon signed rank test. Multiple comparisons were made by one-way ANOVA with post hoc test (Dunnett's) as appropriate. The difference was considered significant at p<0.05. […] Anti-inflammatory effects of solithromycin in U937 cells.

CXCL8 = CXCL8 (IL-8) production in LPS-stimulated PMA-differentiated U937 cells (ELISA); assay type: cell-based, human
Method: as §1

MMP9 = MMP9 activity in PMA-stimulated U937 cells (gelatin zymography); assay type: cell-based, human
Method: EXAMPLE. […] Cells. The human monocytic cell line U937 was obtained from the American Type Culture Collection (ATCC, Rockville, Md.). PBMCs from COPD patients were obtained from Brompton hospital and separated by AccuSPIN (Sigma-Aldrich). […] U937 cells were differentiated into adherent macrophage-like morphology by exposure to PMA (50 ng/ml) for 48 h in complete growth medium. Cell viability was assessed microscopically by trypan blue staining. Cell toxicity was determined by MTT assay as needed. This study was approved by the ethics committee of the Royal Brompton Hospitals, and all subjects gave written informed consent. Zymography. MMP9 enzyme activity was measured by gelatin zymography. […] After electrophoresis, gels were incubated and rinsed with Novex® zymogram renaturing buffer (Invitrogen) for 30 min at room temperature. The gels were then rinsed in Novex® zymogram developing buffer (Invitrogen) for 30 min at room temperature prior to overnight incubation in the developing buffer at 37° C. After incubation, the gels were stained using a Colloidal Blue Staining Kit (Invitrogen) to visualize the zymogen bands. Statistical analysis. The results were expressed as the mean±SEM. Comparisons of data in two groups were performed using the Student's t test or the Wilcoxon signed rank test. Multiple comparisons were made by one-way ANOVA with post hoc test (Dunnett's) as appropriate. The difference was considered significant at p<0.05.

S. pneumoniae = assay: MICs of solithromycin and comparator drugs, S. pneumoniae (30 species); assay type: cell-based; settings: for MIC50 / MIC90: Streptococcus pneumoniae
Description: (§2) EXAMPLE. The formulations described herein show overall higher potency against ocular pathogens than commercial standards.
(§3) MICs (μg/ml) of Solithromycin and Comparator Drugs against Bacterial Species

H. influenzae = assay: MICs of solithromycin and comparator drugs, H. influenzae (30 species); assay type: cell-based; settings: for MIC50 / MIC90: Haemophilus influenzae
Description: as §2, §3

MSSA = assay: MICs of solithromycin and comparator drugs, MSSA (31 species); assay type: cell-based; settings: for MIC50 / MIC90: Staphylococcus aureus, MSSA
Description: as §2, §3

MSRA = assay: MICs of solithromycin and comparator drugs, MSRA (30 species); assay type: cell-based; settings: for I (intermediate susceptibility) / NS (not susceptible) / S (susceptible): 30 species
Description: as §2, §3

S. epidermidis = assay: MICs of solithromycin and comparator drugs, S. epidermidis (30 species); assay type: cell-based; settings: for MIC50 / MIC90: Staphylococcus epidermidis
Description: as §2, §3

[1] = at a higher concentration (333 μM)

Compound: COCC1=C(C(=O)O)N2C(=O)[C@@H](NC(=O)/C(=N\OC)c3csc(N)n3)[C@H]2SC1 [Cefpodoxime]
- MIC Range (P. Acnes): ≤0.015 to 2 µg/mL
- MIC50 (P. Acnes; 51 species): 0.5 µg/mL (≈ 1.17 µM)
- MIC90 (P. Acnes; 51 species): 2 µg/mL (≈ 4.68 µM)

Compound: CC[C@H]1OC(=O)[C@H](C)[C@@H](O[C@H]2C[C@@](C)(OC)[C@@H](O)[C@H](C)O2)[C@H](C)[C@@H](O[C@@H]2O[C@H](C)C[C@H](N(C)C)[C@H]2O)[C@](C)(OC)C[C@@H](C)C(=O)[C@H](C)[C@@H](O)[C@]1(C)O [Clarithromycin, clarithromycin]
- MIC Range (P. Acnes): ≤0.015 to 0.5 µg/mL
- MIC50 (P. Acnes; 51 species): ≤ 0.015 µg/mL
- MIC90 (P. Acnes; 51 species): 0.25 µg/mL (≈ 0.334 µM)
- IC50 (TNFα; Homo sapiens, U-937, LPS, PMA-differentiated U937 cells, read-out: IC50 on TNFα release): 426 ± 63.9 µM
- effect on TNFα production (TNFα; [1]): modest effects
- IC50 (CXCL8; Homo sapiens, U-937, LPS, PMA-differentiated U937 cells, read-out: IC50 on CXCL8 release): 506 ± 44 µM
- effect on IL-8 production (CXCL8; [1]): modest effects
- inhibitory effect on MMP9 activity, lower than solithromycin (MMP9): 10 fold

Compound: C=CC1=C(C(=O)O)N2C(=O)[C@@H](NC(=O)/C(=N\OCC(=O)O)c3csc(N)n3)[C@H]2SC1 [Cefixime]
- MIC Range (P. Acnes): ≤0.03 to 0.5 µg/mL
- MIC50 (P. Acnes; 51 species): 0.25 µg/mL (≈ 0.551 µM)
- MIC90 (P. Acnes; 51 species): 0.5 µg/mL (≈ 1.1 µM)

Compound: C=CC1=C(C(=O)O)N2C(=O)[C@@H](NC(=O)/C(=N\O)c3csc(N)n3)[C@H]2SC1 [Cefdinir]
- MIC Range (P. Acnes): ≤0.015 to 0.12 µg/mL
- MIC50 (P. Acnes; 51 species): 0.03 µg/mL (≈ 0.0759 µM)
- MIC90 (P. Acnes; 51 species): 0.12 µg/mL (≈ 0.303 µM)

Compound: CC[C@H]1OC(=O)[C@H](C)[C@@H](O[C@H]2C[C@@](C)(OC)[C@@H](O)[C@H](C)O2)[C@H](C)[C@@H](O[C@@H]2O[C@H](C)C[C@H](N(C)C)[C@H]2O)[C@](C)(O)C[C@@H](C)C(=O)[C@H](C)[C@@H](O)[C@]1(C)O [erythromycin]
- effect on TNFα production (TNFα; concentration not given): did not inhibit
- effect on IL-8 production (CXCL8; concentration not given): did not inhibit
- effect on MMP9 activity (MMP9): no effect

Compound: CN[C@H](CC(C)C)C(=O)N[C@H]1C(=O)N[C@@H](CC(N)=O)C(=O)N[C@H]2C(=O)N[C@H]3C(=O)N[C@H](C(=O)N[C@H](C(=O)O)c4cc(O)cc(O)c4-c4cc3ccc4O)[C@H](O)c3ccc(c(Cl)c3)Oc3cc2cc(c3O[C@@H]2O[C@H](CO)[C@@H](O)[C@H](O)[C@H]2O[C@H]2C[C@](C)(N)[C@H](O)[C@H](C)O2)Oc2ccc(cc2Cl)[C@H]1O [Vancomycin]
- MIC Range (P. Acnes; 51 species): 0.12 to 1 µg/mL
- MIC50 (P. Acnes; 51 species): 1 µg/mL (≈ 0.69 µM)
- MIC90 (P. Acnes; 51 species): 1 µg/mL (≈ 0.69 µM)

Compound: C[C@H]1c2cccc(O)c2C(=O)C2=C(O)[C@]3(O)C(=O)C(C(N)=O)=C(O)[C@@H](N(C)C)[C@@H]3[C@@H](O)[C@@H]21 [Doxycycline]
- MIC Range (P. Acnes): ≤0.008 to 1 µg/mL
- MIC50 (P. Acnes; 51 species): 0.06 µg/mL (≈ 0.135 µM)
- MIC90 (P. Acnes; 51 species): 0.12 µg/mL (≈ 0.27 µM)

Compound: CC[C@H]1OC(=O)[C@H](C)C(=O)[C@H](C)[C@@H](O[C@@H]2O[C@H](C)C[C@H](N(C)C)[C@H]2O)[C@](C)(OC)C[C@@H](C)C(=O)[C@H](C)[C@H]2N(CCCCn3cnc(-c4cccnc4)c3)C(=O)O[C@]12C [Telithromycin]
- effect on TNFα production (TNFα; at 100 μM): did not inhibit
- effect on CXCL8 production (CXCL8; at 100 μM): did not inhibit
- IC50 (MMP9; Homo sapiens, U-937): 97.9 µM

Compound: COc1c(N2C[C@@H]3CCCN[C@@H]3C2)c(F)cc2c(=O)c(C(=O)O)cn(C3CC3)c12 [Moxifloxacin]
- I (intermediate susceptibility) (S. pneumoniae): 0%
- MIC Range (S. pneumoniae): 0.015 to 0.25 µg/mL
- NS (not susceptible) (S. pneumoniae): 0%
- S (susceptible) (S. pneumoniae): 100%
- MIC50 (S. pneumoniae): 0.12 µg/mL (≈ 0.299 µM)
- MIC90 (S. pneumoniae): 0.25 µg/mL (≈ 0.623 µM)
- I (intermediate susceptibility) (H. influenzae): 0%
- MIC Range (H. influenzae): 0.015 to 0.06 µg/mL
- NS (not susceptible) (H. influenzae): 0%
- S (susceptible) (H. influenzae): 100%
- MIC50 (H. influenzae): 0.03 µg/mL (≈ 0.0747 µM)
- MIC90 (H. influenzae): 0.06 µg/mL (≈ 0.149 µM)
- I (intermediate susceptibility) (MSSA): 0%
- MIC Range (MSSA): 0.015 to 2 µg/mL
- NS (not susceptible) (MSSA): 6%
- S (susceptible) (MSSA): 94%
- MIC50 (MSSA): 0.06 µg/mL (≈ 0.149 µM)
- MIC90 (MSSA): 0.12 µg/mL (≈ 0.299 µM)
- MIC50 (MSRA): 2 µg/mL (≈ 4.98 µM)
- MIC90 (MSRA): 8 µg/mL (≈ 19.9 µM)
- I (intermediate susceptibility) (MSRA): 3%
- NS (not susceptible) (MSRA): 87%
- S (susceptible) (MSRA): 10%
- I (intermediate susceptibility) (S. epidermidis): 3%
- NS (not susceptible) (S. epidermidis): 13%
- S (susceptible) (S. epidermidis): 83%
- MIC50 (S. epidermidis): 0.06 µg/mL (≈ 0.149 µM)
- MIC90 (S. epidermidis): 4 µg/mL (≈ 9.96 µM)

Compound: CC(=O)NC[C@H]1CN(c2ccc(N3CCOCC3)c(F)c2)C(=O)O1 [Linezolid]
- MIC Range (P. Acnes): ≤0.03 to 0.5 µg/mL
- MIC50 (P. Acnes; 51 species): 0.25 µg/mL (≈ 0.741 µM)
- MIC90 (P. Acnes; 51 species): 0.5 µg/mL (≈ 1.48 µM)

Compound: C[C@H]1COc2c(N3CCN(C)CC3)c(F)cc3c(=O)c(C(=O)O)cn1c23 [Levofloxacin]
- MIC Range (P. Acnes): 0.06 to 2 µg/mL
- MIC50 (P. Acnes; 51 species): 1 µg/mL (≈ 2.77 µM)
- MIC90 (P. Acnes; 51 species): 1 µg/mL (≈ 2.77 µM)

Compound: NC[C@H]1O[C@H](O[C@H]2[C@H](O)[C@@H](O[C@H]3O[C@H](CO)[C@@H](O)[C@H](N)[C@H]3O)[C@H](N)C[C@@H]2N)[C@H](N)C[C@@H]1O [Tobramycin]
- MIC Range (S. pneumoniae): 4 to 16 µg/mL
- MIC50 (S. pneumoniae): 16 µg/mL (≈ 34.2 µM)
- MIC90 (S. pneumoniae): 16 µg/mL (≈ 34.2 µM)
- MIC Range (H. influenzae): 2 to 8 µg/mL
- MIC50 (H. influenzae): 4 µg/mL (≈ 8.56 µM)
- MIC90 (H. influenzae): 4 µg/mL (≈ 8.56 µM)
- I (intermediate susceptibility) (MSSA): 0%
- MIC Range (MSSA): 0.12 to 4 µg/mL
- NS (not susceptible) (MSSA): 0%
- S (susceptible) (MSSA): 100%
- MIC50 (MSSA): 0.5 µg/mL (≈ 1.07 µM)
- MIC90 (MSSA): 0.5 µg/mL (≈ 1.07 µM)
- MIC50 (MSRA): 1 µg/mL (≈ 2.14 µM)
- MIC90 (MSRA): > 64 µg/mL
- I (intermediate susceptibility) (MSRA): 3%
- NS (not susceptible) (MSRA): 30%
- S (susceptible) (MSRA): 67%
- I (intermediate susceptibility) (S. epidermidis): 3%
- MIC Range (S. epidermidis): 0.12 to 64 µg/mL
- NS (not susceptible) (S. epidermidis): 23%
- S (susceptible) (S. epidermidis): 73%
- MIC50 (S. epidermidis): 0.5 µg/mL (≈ 1.07 µM)
- MIC90 (S. epidermidis): 32 µg/mL (≈ 68.4 µM)
